Assay results from paper PMC9532703, “A novel small molecule RK-019 inhibits FGFR2-amplification gastric cancer cell proliferation and induces apoptosis in vitro and in vivo” (Frontiers in Pharmacology, 2022).

Tests used:
Test in all cases: Kinase selectivity panel
Assay type in all cases: biochemical
Conditions in all cases: read-out: Inhibition(%) @ 1 µM RK-019
AAK1(h) = target: T1, AAK1(h) (Homo sapiens, UniProt Q2M2I8)
T1 construct: purchased Eurofins Discovery Services (KinaseProfiler)
Method: (§1) Median-inhibitory concentration (IC50) and inhibition ratio of kinases by RK-019 was assessed by Eurofins Discovery Services (Dundee, United Kingdom) using the ATP-site competition binding assay in vitro. Firstly, gradient concentration of RK-019 against FGFRs, including FGFR1, FGFR2, FGFR3, and FGFR4, were tested. IC50 value was calculate by the GraphPad Prism software (v8.4.3, GraphPad Software, California, United States). Then, to measure the selectivity prolife of RK-019, a panel of 422 recombinant human kinases was screened at a concentration of 1 µM RK-019. Kinase MAP was drawn by webtools from Cell Signaling Technology, Inc. (www.cellsignal.com).

AMPKα2(h) = target: T2, AMPKα2(h) (Homo sapiens, UniProt P54646)
T2 construct: purchased Eurofins Discovery Services (KinaseProfiler)
Method: as §1

Abl(Y253F)(h) = target: T3, Abl(Y253F)(h) (Homo sapiens, UniProt P00519, Y253F)
T3 construct: purchased Eurofins Discovery Services (KinaseProfiler)
Method: as §1

BRK(h) = target: T4, BRK(h) (Homo sapiens, UniProt Q13882)
T4 construct: purchased Eurofins Discovery Services (KinaseProfiler)
Method: as §1

Blk(m) = target: T5, Blk(m) (Mus musculus, UniProt P16277)
T5 construct: purchased Eurofins Discovery Services (KinaseProfiler)
Method: as §1

CRIK(h) = target: T6, CRIK(h) (Homo sapiens, UniProt O14578)
T6 construct: purchased Eurofins Discovery Services (KinaseProfiler)
Method: as §1

CaMKIIα(h) = target: T7, CaMKIIα(h) (Homo sapiens, UniProt Q9UQM7)
T7 construct: purchased Eurofins Discovery Services (KinaseProfiler)
Method: as §1

CaMKIδ(h) = target: T8, CaMKIδ(h) (Homo sapiens, UniProt Q8IU85)
T8 construct: purchased Eurofins Discovery Services (KinaseProfiler)
Method: as §1

DCAMKL3(h) = target: T9, DCAMKL3(h) (Homo sapiens, UniProt Q9C098)
T9 construct: purchased Eurofins Discovery Services (KinaseProfiler)
Method: as §1

DYRK1A(h) = target: T10, DYRK1A(h) (Homo sapiens, UniProt Q13627)
T10 construct: purchased Eurofins Discovery Services (KinaseProfiler)
Method: as §1

EphA3(h) = target: T11, EphA3(h) (Homo sapiens, UniProt P29320)
T11 construct: purchased Eurofins Discovery Services (KinaseProfiler)
Method: as §1

ErbB4(h) = target: T12, ErbB4(h) (Homo sapiens, UniProt Q15303)
T12 construct: purchased Eurofins Discovery Services (KinaseProfiler)
Method: as §1

Flt3(D835Y)(h) = target: T13, Flt3(D835Y)(h) (Homo sapiens, UniProt P36888, D835Y)
T13 construct: purchased Eurofins Discovery Services (KinaseProfiler)
Method: as §1

GRK7(h) = target: T14, GRK7(h) (Homo sapiens, UniProt Q8WTQ7)
T14 construct: purchased Eurofins Discovery Services (KinaseProfiler)
Method: as §1

IRR(h) = target: T15, IRR(h) (Homo sapiens, UniProt P14616)
T15 construct: purchased Eurofins Discovery Services (KinaseProfiler)
Method: as §1

JAK3(h) = target: T16, JAK3(h) (Homo sapiens, UniProt P52333)
T16 construct: purchased Eurofins Discovery Services (KinaseProfiler)
Method: as §1

MAPK1(h) = target: T17, MAPK1(h) (Homo sapiens, UniProt P27361)
T17 construct: purchased Eurofins Discovery Services (KinaseProfiler)
Method: as §1

MAPKAP-K2(h) = target: T18, MAPKAP-K2(h) (Homo sapiens, UniProt P49137)
T18 construct: purchased Eurofins Discovery Services (KinaseProfiler)
Method: as §1

MAPKAP-K3(h) = target: T19, MAPKAP-K3(h) (Homo sapiens, UniProt Q16644)
T19 construct: purchased Eurofins Discovery Services (KinaseProfiler)
Method: as §1

MLK2(h) = target: T20, MLK2(h) (Homo sapiens, UniProt Q02779)
T20 construct: purchased Eurofins Discovery Services (KinaseProfiler)
Method: as §1

MLK3(h) = target: T21, MLK3(h) (Homo sapiens, UniProt Q16584)
T21 construct: purchased Eurofins Discovery Services (KinaseProfiler)
Method: as §1

MRCKα(h) = target: T22, MRCKα(h) (Homo sapiens, UniProt Q5VT25)
T22 construct: purchased Eurofins Discovery Services (KinaseProfiler)
Method: as §1

MSSK1(h) = target: T23, MSSK1(h) (Homo sapiens, UniProt Q9UPE1)
T23 construct: purchased Eurofins Discovery Services (KinaseProfiler)
Method: as §1

Met(Y1248D)(h) = target: T24, Met(Y1248D)(h) (Homo sapiens, UniProt P08581, Y1230D)
T24 construct: purchased Eurofins Discovery Services (KinaseProfiler)
Method: as §1

MuSK(h) = target: T25, MuSK(h) (Homo sapiens, UniProt O15146)
T25 construct: purchased Eurofins Discovery Services (KinaseProfiler)
Method: as §1

PAK2(h) = target: T26, PAK2(h) (Homo sapiens, UniProt Q13177)
T26 construct: purchased Eurofins Discovery Services (KinaseProfiler)
Method: as §1

PAK5(h) = target: T27, PAK5(h) (Homo sapiens, UniProt Q9P286)
T27 construct: purchased Eurofins Discovery Services (KinaseProfiler)
Method: as §1

PAK6(h) = target: T28, PAK6(h) (Homo sapiens, UniProt Q9NQU5)
T28 construct: purchased Eurofins Discovery Services (KinaseProfiler)
Method: as §1

PI3 Kinase (p120g)(h) = target: T29, PI3 Kinase (p120g)(h) (Homo sapiens, UniProt P48736)
T29 construct: purchased Eurofins Discovery Services (KinaseProfiler)
Method: as §1

PKCβI(h) = target: T30, PKCβI(h) (Homo sapiens, UniProt P05771)
T30 construct: purchased Eurofins Discovery Services (KinaseProfiler)
Method: as §1

PKR(h) = target: T31, PKR(h) (Homo sapiens, UniProt P19525)
T31 construct: purchased Eurofins Discovery Services (KinaseProfiler)
Method: as §1

RIPK1(h) = target: T32, RIPK1(h) (Homo sapiens, UniProt Q13546)
T32 construct: purchased Eurofins Discovery Services (KinaseProfiler)
Method: as §1

Rsk3(h) = target: T33, Rsk3(h) (Homo sapiens, UniProt Q15349)
T33 construct: purchased Eurofins Discovery Services (KinaseProfiler)
Method: as §1

WNK1(h) = target: T34, WNK1(h) (Homo sapiens, UniProt Q9H4A3)
T34 construct: purchased Eurofins Discovery Services (KinaseProfiler)
Method: as §1

Wee1B(h) = target: T35, Wee1B(h) (Homo sapiens, UniProt P0C1S8)
T35 construct: purchased Eurofins Discovery Services (KinaseProfiler)
Method: as §1

cKit(V560G)(h) = target: T36, cKit(V560G)(h) (Homo sapiens, UniProt P10721, V560G)
T36 construct: purchased Eurofins Discovery Services (KinaseProfiler)
Method: as §1

mTOR(h) = target: T37, mTOR(h) (Homo sapiens, UniProt P42345)
T37 construct: purchased Eurofins Discovery Services (KinaseProfiler)
Method: as §1

T23 sequence (Q9UPE1 whole entry): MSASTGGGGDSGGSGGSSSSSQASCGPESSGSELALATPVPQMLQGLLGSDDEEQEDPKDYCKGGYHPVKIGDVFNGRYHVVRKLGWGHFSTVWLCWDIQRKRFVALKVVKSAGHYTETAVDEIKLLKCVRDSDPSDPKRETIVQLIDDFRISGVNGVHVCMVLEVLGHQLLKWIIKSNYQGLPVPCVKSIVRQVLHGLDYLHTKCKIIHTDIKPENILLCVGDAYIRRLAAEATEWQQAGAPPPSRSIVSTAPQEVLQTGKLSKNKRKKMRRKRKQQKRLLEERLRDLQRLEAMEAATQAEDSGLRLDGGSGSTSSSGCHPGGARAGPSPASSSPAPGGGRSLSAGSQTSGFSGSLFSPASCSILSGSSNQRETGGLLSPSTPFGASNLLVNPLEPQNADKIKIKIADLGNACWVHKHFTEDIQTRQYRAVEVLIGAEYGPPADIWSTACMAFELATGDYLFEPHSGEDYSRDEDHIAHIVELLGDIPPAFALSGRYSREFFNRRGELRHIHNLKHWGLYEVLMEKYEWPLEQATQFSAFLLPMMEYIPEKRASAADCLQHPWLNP
T21 sequence (Q16584 whole entry): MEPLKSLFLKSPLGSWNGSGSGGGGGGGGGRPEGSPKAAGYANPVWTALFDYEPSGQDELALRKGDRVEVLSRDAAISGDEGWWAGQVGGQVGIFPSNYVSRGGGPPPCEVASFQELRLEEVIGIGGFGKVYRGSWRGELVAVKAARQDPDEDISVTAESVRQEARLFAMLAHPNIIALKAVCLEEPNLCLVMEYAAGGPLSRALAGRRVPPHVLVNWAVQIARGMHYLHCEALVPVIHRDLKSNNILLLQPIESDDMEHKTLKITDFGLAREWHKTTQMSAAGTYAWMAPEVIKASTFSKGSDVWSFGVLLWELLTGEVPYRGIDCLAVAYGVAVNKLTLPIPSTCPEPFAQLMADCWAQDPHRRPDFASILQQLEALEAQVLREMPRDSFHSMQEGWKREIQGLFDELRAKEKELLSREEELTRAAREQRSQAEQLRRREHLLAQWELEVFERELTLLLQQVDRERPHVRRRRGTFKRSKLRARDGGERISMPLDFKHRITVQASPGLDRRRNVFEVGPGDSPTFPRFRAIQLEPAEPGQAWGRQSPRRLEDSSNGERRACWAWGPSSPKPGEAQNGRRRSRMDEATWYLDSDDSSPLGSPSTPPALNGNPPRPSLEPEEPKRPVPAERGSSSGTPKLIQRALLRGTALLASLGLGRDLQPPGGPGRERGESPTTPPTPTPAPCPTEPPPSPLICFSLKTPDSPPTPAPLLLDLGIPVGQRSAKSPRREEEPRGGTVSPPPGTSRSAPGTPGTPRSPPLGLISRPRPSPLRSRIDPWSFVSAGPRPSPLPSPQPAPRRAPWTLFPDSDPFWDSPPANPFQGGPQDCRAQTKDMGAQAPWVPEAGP
T4 sequence (Q13882 whole entry): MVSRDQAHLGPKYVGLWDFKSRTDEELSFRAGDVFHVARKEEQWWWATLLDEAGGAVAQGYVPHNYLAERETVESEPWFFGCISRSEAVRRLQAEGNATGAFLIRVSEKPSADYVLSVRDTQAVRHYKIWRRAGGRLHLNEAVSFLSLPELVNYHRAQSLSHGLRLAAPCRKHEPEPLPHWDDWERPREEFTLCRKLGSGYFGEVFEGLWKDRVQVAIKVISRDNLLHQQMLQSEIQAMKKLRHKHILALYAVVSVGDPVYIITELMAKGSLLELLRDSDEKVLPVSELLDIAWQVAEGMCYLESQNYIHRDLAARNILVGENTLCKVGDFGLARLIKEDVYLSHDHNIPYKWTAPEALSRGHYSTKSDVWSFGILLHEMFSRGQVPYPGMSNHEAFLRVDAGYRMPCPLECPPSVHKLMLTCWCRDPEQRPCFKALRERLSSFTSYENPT
T5 sequence (P16277 2-499 limits assumed): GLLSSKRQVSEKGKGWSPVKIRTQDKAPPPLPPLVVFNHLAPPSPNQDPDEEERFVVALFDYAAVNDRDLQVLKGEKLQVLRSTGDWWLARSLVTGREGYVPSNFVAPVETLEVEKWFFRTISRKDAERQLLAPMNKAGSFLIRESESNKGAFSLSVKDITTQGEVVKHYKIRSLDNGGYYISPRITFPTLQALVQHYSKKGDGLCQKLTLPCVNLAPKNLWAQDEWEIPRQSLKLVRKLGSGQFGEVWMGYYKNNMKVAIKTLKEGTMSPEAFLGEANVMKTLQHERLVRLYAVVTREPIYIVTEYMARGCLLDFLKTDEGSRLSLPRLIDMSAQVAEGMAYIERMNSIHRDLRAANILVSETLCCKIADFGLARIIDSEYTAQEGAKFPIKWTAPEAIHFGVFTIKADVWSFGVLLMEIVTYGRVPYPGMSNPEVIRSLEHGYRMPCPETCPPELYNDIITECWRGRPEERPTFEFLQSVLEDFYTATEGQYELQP
T6 sequence (O14578 whole entry): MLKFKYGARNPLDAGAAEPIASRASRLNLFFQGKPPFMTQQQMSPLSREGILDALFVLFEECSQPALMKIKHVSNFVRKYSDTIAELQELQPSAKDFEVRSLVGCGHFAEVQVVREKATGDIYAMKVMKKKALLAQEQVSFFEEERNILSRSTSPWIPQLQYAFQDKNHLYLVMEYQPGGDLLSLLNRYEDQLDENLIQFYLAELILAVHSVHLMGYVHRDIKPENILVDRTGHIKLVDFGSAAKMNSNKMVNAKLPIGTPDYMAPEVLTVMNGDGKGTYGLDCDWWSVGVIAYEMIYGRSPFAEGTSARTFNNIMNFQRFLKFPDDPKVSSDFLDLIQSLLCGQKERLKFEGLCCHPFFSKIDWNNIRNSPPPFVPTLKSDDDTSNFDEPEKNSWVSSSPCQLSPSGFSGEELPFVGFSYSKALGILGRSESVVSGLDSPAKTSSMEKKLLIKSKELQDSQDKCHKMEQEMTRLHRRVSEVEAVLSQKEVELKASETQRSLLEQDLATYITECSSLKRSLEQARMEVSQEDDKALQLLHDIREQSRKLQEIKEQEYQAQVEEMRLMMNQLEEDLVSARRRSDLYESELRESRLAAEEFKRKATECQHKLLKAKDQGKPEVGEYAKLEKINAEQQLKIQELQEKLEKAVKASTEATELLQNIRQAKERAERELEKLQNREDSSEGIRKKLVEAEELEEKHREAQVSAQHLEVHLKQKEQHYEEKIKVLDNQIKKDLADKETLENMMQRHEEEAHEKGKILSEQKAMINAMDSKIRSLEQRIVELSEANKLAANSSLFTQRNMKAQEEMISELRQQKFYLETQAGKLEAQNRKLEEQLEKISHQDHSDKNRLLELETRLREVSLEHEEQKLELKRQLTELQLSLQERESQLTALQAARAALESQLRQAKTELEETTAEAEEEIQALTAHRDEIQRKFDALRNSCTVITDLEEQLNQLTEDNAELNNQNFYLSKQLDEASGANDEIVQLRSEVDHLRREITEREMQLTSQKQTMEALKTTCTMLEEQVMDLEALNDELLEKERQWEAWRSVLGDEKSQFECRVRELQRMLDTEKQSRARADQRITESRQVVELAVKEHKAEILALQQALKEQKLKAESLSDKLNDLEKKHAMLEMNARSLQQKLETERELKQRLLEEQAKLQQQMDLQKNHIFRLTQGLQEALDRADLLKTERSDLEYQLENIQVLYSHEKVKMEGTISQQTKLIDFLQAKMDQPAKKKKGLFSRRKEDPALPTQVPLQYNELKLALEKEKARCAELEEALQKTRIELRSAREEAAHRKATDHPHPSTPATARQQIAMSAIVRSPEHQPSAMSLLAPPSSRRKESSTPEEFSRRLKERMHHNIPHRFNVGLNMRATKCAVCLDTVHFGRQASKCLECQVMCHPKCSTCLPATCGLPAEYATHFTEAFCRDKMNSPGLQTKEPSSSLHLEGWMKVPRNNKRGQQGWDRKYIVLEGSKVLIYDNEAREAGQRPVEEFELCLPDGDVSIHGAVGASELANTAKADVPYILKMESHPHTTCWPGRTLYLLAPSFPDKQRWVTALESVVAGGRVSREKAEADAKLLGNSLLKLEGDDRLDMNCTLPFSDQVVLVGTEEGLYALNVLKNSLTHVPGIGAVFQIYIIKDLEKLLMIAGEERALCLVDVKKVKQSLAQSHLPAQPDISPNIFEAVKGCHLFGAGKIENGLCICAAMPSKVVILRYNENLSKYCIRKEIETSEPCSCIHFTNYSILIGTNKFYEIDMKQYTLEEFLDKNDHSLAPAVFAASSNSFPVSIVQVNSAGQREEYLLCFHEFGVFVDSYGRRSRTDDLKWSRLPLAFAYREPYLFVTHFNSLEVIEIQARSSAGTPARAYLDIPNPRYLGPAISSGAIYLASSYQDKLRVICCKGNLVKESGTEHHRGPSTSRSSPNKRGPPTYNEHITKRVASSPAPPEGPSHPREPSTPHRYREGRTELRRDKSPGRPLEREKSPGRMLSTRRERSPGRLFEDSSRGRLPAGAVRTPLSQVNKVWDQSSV
T14 sequence (Q8WTQ7 whole entry): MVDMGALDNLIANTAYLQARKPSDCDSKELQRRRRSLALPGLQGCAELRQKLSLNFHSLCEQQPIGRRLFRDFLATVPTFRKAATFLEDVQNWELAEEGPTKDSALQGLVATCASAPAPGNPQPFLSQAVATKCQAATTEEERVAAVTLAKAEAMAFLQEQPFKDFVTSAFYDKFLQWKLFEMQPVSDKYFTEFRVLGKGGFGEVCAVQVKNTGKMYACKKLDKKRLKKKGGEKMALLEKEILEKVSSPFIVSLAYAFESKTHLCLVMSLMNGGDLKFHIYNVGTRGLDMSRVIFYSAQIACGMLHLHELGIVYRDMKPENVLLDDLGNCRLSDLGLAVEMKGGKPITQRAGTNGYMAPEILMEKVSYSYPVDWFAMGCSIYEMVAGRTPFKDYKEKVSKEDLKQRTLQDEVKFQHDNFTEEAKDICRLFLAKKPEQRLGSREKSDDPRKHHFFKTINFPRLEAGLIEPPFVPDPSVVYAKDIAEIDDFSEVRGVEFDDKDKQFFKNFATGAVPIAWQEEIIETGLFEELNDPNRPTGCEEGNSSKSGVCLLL

## COc1cc(OC)cc(N(CCN[C@H](C)CO)c2ccc3ncc(-c4cnn(C)c4)c(=O)n3c2)c1 [RK-019, (R)-7-((3,5-dimethoxyphenyl) (2-((1-hydroxypropan-2-yl)amino)ethyl)amino)-3-(1-methyl-1H-pyrazol-4-yl)-4H-pyrido [1,2-a]pyrimidin-4-one]
AAK1(h)
  activity at 1 µM: 91%
AMPKα2(h)
  activity at 1 µM: 109%
Abl(Y253F)(h)
  activity at 1 µM: 54%
BRK(h)
  activity at 1 µM: 89%
Blk(m)
  activity at 1 µM: 53%
CRIK(h)
  activity at 1 µM: 117%
CaMKIIα(h)
  activity at 1 µM: 64%
CaMKIδ(h)
  activity at 1 µM: 98%
DCAMKL3(h)
  activity at 1 µM: 127%
DYRK1A(h)
  activity at 1 µM: 101%
EphA3(h)
  activity at 1 µM: 60%
ErbB4(h)
  activity at 1 µM: 105%
Flt3(D835Y)(h)
  activity at 1 µM: 86%
GRK7(h)
  activity at 1 µM: 108%
IRR(h)
  activity at 1 µM: 104%
JAK3(h)
  activity at 1 µM: 97%
MAPK1(h)
  activity at 1 µM: 116%
MAPKAP-K2(h)
  activity at 1 µM: 121%
MAPKAP-K3(h)
  activity at 1 µM: 109%
MLK2(h)
  activity at 1 µM: 103%
MLK3(h)
  activity at 1 µM: 98%
MRCKα(h)
  activity at 1 µM: 103%
MSSK1(h)
  activity at 1 µM: 135%
Met(Y1248D)(h)
  activity at 1 µM: 103%
MuSK(h)
  activity at 1 µM: 105%
PAK2(h)
  activity at 1 µM: 98%
PAK5(h)
  activity at 1 µM: 101%
PAK6(h)
  activity at 1 µM: 96%
PI3 Kinase (p120g)(h)
  activity at 1 µM: 102%
PKCβI(h)
  activity at 1 µM: 102%
PKR(h)
  activity at 1 µM: 50%
RIPK1(h)
  activity at 1 µM: 85%
Rsk3(h)
  activity at 1 µM: 100%
WNK1(h)
  activity at 1 µM: 95%
Wee1B(h)
  activity at 1 µM: 107%
cKit(V560G)(h)
  activity at 1 µM: 14%
mTOR(h)
  activity at 1 µM: 105%
